# Columns and labels:
# [1] = system: Formalin Pain (mouse, i.p.); test: T22 formalin test (chemically induced pain); assay type: in vivo
# Description: This elicits a distinct bi-phasic behavioral profile in response to the formalin injection characterized by licking of the affected paw, and the number of licks is measured as a proxy for perceived pain. The first (acute) phase is thought to correspond to the direct stimulation of peripheral fibers while the second (inflammatory) phase is caused by the release of inflammatory mediators from the damaged tissue and nerve endings. Thus, this model is ideally suited for efficacy of an investigational AED against the acute and chronic hyper-responsive neuronal discharges following activation of peripheral nerve fibers.
# The results of the formalin test are given both as raw data (“Response”) and in an aggregate, analyzed form (“Analysis”). In the Response section, each Trial involves sixteen animals, eight controls given an i.p. injection of vehicle and eight given the compound at a specified dose. Thus, for multiple doses of the compound, there will also be multiple control groups. The data recorded for each animal is the amount of time(s) spent licking the affected hind paw in a two minute period. These two minute periods occur at five minute intervals and continue for 45 minutes. […] From this plot, we can then determine the area under the curve (AUC) for each animal during both the acute and inflammatory stages. The AUC for each phase is shown in the analysis section of the data sheet for both control and drug-treated animals The AUC for each drug-treated animal is compared to the average result from the control group, yielding an average percent of control (reported with the SEM and p value).
# [2] = system: Sciatic Ligation neuropathic pain; test: T23 partial ligation of the sciatic nerve (mechanical allodynia); assay type: in vivo, rats; conditions: dose 35.5 (HZ-166), 18 (JY-XHE-053), 1 (XLI-JY-DMH) mg/kg; TPE 2 hr
# Description: Neuropathic pain. The pro- or antinociceptive effects of the compounds of the present invention are analyzed in two manners. […] Sterile technique will be used throughout the surgery. The upper thigh will be shaved and wiped off with ethanol and betadine. A small incision will then be made in the skin. The underlying muscle of the upper thigh will be separated and the sciatic nerve exposed. The nerve is separated from the surrounding connective tissue and slightly elevated by a pair of fine, curved forceps. Approximately ⅓ to ½ of the nerve is tied off by passing a needle (7.0) and nylon suture through the nerve. The muscle and skin incision are closed off separately with 5.0 suture and the animals kept warm until they have recovered from the anesthesia. This procedure is routinely done on the right side (ipsilateral) while a sham surgery is performed on the left hind leg (contralateral). The latter involves a similar procedure with the exception that the sciatic nerve on this side is only exposed. The rats will be closely monitored daily for the development of infection or untoward effects of the surgery in which case the animals will be immediately euthanized
# After an appropriate time for recovery (7 days) the animals will be tested for the development of mechanical allodynia (abnormal response to a non-noxious stimulus). The animals are each put in a bottomless plexiglass box placed on a wire mesh (¼″) platform. After 30-60 minutes in which to acclimate, a baseline mechanical sensitivity is determined. This procedure is done by applying a series of calibrated Von Frey fibres perpendicularly to the plantar surface of each hind paw and holding it there for about 6 secs with enough force to slightly bend the fibre. After a positive response (withdrawal of the foot) is noted a weaker fibre is applied. This is repeated until a 50% threshold for withdrawal can be determined
# The allodynic threshold is then redetermined after intraperitoneal administration of an investigational AED. Testing will be conducted at the time-to-peak effect of the AED as determined in the acute seizure model.
# [3] = system: locomotor activity of mice; test: spontaneous locomotor activity (activity cage); assay type: in vivo
# Description: Locomotor activity: Spontaneous locomotor activity was tested using a commercially available microprocessor equipped activity cage (actiframe, Gerb Elektronik). Mice were placed in the activity cage 15 min before testing. Locomotor activity was measured for 1 h after intraperitoneal administration of vehicle, gabapentin or HZ166 during the early light phase of the day-night cycle.
# [4] = system: neuropathic pain after CCI of the sciatic nerve; test: tolerance development in the CCI model (chronic treatment); assay type: in vivo, mice; conditions: for tolerance development / loss of antihyperalgesic activity: 9-day treatment period in neuropathic mice
# Description: Tolerance development: Possible development of tolerance against the antihyperalgesic effect of HZ166 was investigated in the CCI model. Starting from day 7 after CCI surgery, HZ166 at the dose of 16 mg/kg or vehicle were administered intraperitoneally once daily for 9 consecutive days. On day 10, each group (vehicle and HZ166) was subdivided in 2 subgroups: one received vehicle and the other HZ166 at the dose of 16 mg/kg. After the last injection, mechanical sensitivity was assessed for 3 hours.
# [5] = mice and rats after intraperitoneal (i.p.) application; Rivas et al., 2009; cited from earlier work
# Cyp = Cyp profile
smiles,measurement,setting,value
"C#Cc1ccc2c(c1)C(c1ccccn1)=NCc1c(C(=O)OCC)ncn1-2 [HZ-166, 8-Acetylenyl-6-pyridin-2-yl-4H-benzo[f]imidazo[1,5-a][1,4]diazepine-3-carboxylic acid ethyl ester]",protection at the acute phase of chemically induced pain,"[1]; formalin test, acute phase",significant protection
same,"Change (% of Control) ± SEM, T22 Formalin Pain, Acute","[1]; mouse, i.p., acute phase, dose 16 (HZ-166), 10 (JY-XHE-053), 1 (XLI-JY-DMH) mg/kg",66.8 % of Control
same,"Change (% of Control) ± SEM, T22 Formalin Pain, inflammatory","[1]; mouse, i.p., inflammatory phase, dose 16 (HZ-166), 10 (JY-XHE-053), 1 (XLI-JY-DMH) mg/kg",63 % of Control
same,"Change (% of Control) ± SEM, T23 Sciatic Ligation",[2],210 % of Control
same,"Significance, T23 Sciatic Ligation",[2],yes
same,impairment of spontaneous motor activity,[3]; 16 and 48 mg/kg i.p.,did not significantly impair
same,doses that did not impair spontaneous locomotor activity,[3]; i.p.,≤ 48 mg/kg
same,sedation,[3]; mouse model of neuropathic pain study,not sedating
same,analgesic activity in mice chronically exposed to HZ166 versus drug-naïve mice,"[4]; 16 mg/kg once daily for 9 days from day 7 after CCI, test on day 10",virtually the same
same,tolerance development / loss of antihyperalgesic activity,[4],did not develop tolerance
same,tolerance development / loss of antihyperalgesic activity,[4]; listed as HZ166,no loss
same,pharmacokinetics,[5],suitable
same,Cyp profile,Cyp,good
